Publication PMC6901909, “Synergy Pattern of Short Cationic Antimicrobial Peptides Against Multidrug-Resistant Pseudomonas aeruginosa” (Frontiers in Microbiology, 2019)
Converted amounts (≈) assume the structure as drawn. Peptide text beside a SMILES is read from it.

Columns and labels:
[1] = system: MDR P. aeruginosa PA 910; test: microbe, parasite or virus in culture; format: cell-based, Pseudomonas aeruginosa
Description: (§1) We selected six different P. aeruginosa isolates that were described as MDR and had been isolated from clinical and municipal waste water ([Schwartz et al., 2006]). The minimal inhibitory concentration (MIC) was determined in a microdilution assay using Mueller-Hinton (MH) broth following a previously published protocol ([Wiegand et al., 2008]). Briefly, a twofold serial dilution of the antibiotics and peptides were prepared and added to a bacteria solution, resulting in 2–5 10^5 CFU/ml. The microtiter plates (polypropylene, Corning) were incubated for 18 h at 37°C and MICs were taken visually.

[2] = system: MDR P. aeruginosa PA 919; test: microbe, parasite or virus in culture; format: cell-based, Pseudomonas aeruginosa; details: MDR PA 919, 18 h
Description: as §1

[3] = system: MDR P. aeruginosa PA253; test: microbe, parasite or virus in culture; format: cell-based, Pseudomonas aeruginosa; details: MDR PA253, 18 h
Description: as §1

[4] = system: P. aeruginosa PA01-wt; test: microbe, parasite or virus in culture; format: cell-based, Pseudomonas aeruginosa; details: -wt, 18 h
Description: as §1

[5] = system: MDR isolate of P. aeruginosa (PA 910); details: checkerboard, MHb, for the Indopt versions 1/8 MHb, 2–5 × 10^5 CFU/ml, 37°C, 18 h, visual, determined once (n = 1)
Description: The checkerboard assay was used to determine the fractional inhibitory concentrations (FICs), following the protocol described in Koneman’s Color Atlas and Textbook of Diagnostic Microbiology ([Winn et al., 2006]). Briefly, combinations of peptides and antibiotics were prepared in 96-well plates (polypropylene, Corning) in a twofold dilution series. After the addition of a log-phase bacterial inoculum of 2–5 × 10^5 CFU/ml, plates were incubated at 37°C for 18 h. The FICs were determined by visual inspection and the effects of the combinations were determined using the FICs. The FIC was computed by adding two partial FIC values, FICA—the MIC of drug A, tested in combination with drug B divided by the MIC of drug A, tested alone and FICB—the MIC of drug B, tested in combination with drug A divided by the MIC of drug B, tested alone [FIC = FICA + FICB = (MICAB/MICA) + (MICBA/MICB), where MICA and MICB are the MICs of drugs A and B alone, respectively, and MICAB and MICBA are the MIC concentrations of the drugs in combination]. Here we use the European Committee for Antimicrobial Susceptibility Testing (EUCAST) definition, which is very similar to the definition provided by [Odds, 2003], except Odds define additive effects when FIC values are between 0.5 and 1 ([European Committee for Antimicrobial Susceptibility Testing [EUCAST] of the European Society of Clinical Microbiology and Infectious Diseases [ESCMID], 2000]; [Odds, 2003]). The combination of peptide (drug A) and antibiotics (drug B) was defined as synergistic if the FIC was ≤ 0.5, indifferent if the FIC was > 0.5 but ≤ 4.0 and antagonistic if the FIC was > 4.0.

SMILES	MIC against MDR isolates of PA, PA919 [2]	MIC against MDR isolates of PA, PA253 [3]	MIC against PA01 wt [4]	MIC against PA910 in μM (peptides, Table 4) ([1]; MDR PA 910, 18 h)	also measured
CC[C@H](C)[C@H](NC(=O)[C@H](CCCNC(=N)N)NC(=O)[C@H](Cc1c[nH]c2ccccc12)NC(=O)[C@H](CC(C)C)NC(=O)[C@@H](N)CCCNC(=N)N)C(=O)N[C@H](C(=O)N[C@H](C(=O)N[C@H](C(=O)N[C@@H](CCCNC(=N)N)C(=O)N[C@H](C(=O)N[C@@H](CCCCN)C(=O)N[C@@H](CCCNC(=N)N)C(N)=O)C(C)C)[C@@H](C)CC)C(C)C)C(C)C [Sub 7] (H-RLWRIVVIRVKR-NH2)	32 µM	16 µM	16 µM (≈ 25.5 µg/mL)	–	MIC against PA910 in μM (peptides, Table 4) ([1]; peptide alone, as listed in the FIC table): 32 µM; FIC, combination with AMI ([5]; peptide + amikacin): 0.53; FIC, combination with CEF ([5]; peptide + cefepime): 0.56; FIC, combination with CET ([5]; peptide + ceftazidime): 0.56; FIC, combination with CIP ([5]; peptide + ciprofloxacin): 0.75; FIC, combination with ERY ([5]; peptide + erythromycin): 0.5; FIC, combination with GEN ([5]; peptide + gentamycin): 0.75; FIC, combination with IMI ([5]; peptide + imipenem): 2; FIC, combination with KAN ([5]; peptide + kanamycin): 0.63; FIC, combination with MER ([5]; peptide + meropenem): 0.51; FIC, combination with PIP ([5]; peptide + piperacillin): 0.53; FIC, combination with PMB ([5]; peptide + polymyxin B): 1; FIC, combination with TET ([5]; peptide + tetracycline): 0.5; FIC, combination with TOB ([5]; peptide + tobramycin): 2
CC[C@H](C)[C@H](NC(=O)[C@@H](N)Cc1ccccc1)C(=O)N[C@@H](CCCCN)C(=O)N[C@@H](Cc1c[nH]c2ccccc12)C(=O)N[C@@H](CCCCN)C(=O)N[C@@H](Cc1ccccc1)C(=O)N[C@@H](CCCNC(=N)N)C(=O)N1CCC[C@H]1C(=O)N[C@@H](Cc1c[nH]c2ccccc12)C(=O)N[C@@H](CCCCN)C(=O)N[C@@H](CCCCN)C(=O)N[C@@H](CCCNC(=N)N)C(=O)N[C@H](C(N)=O)[C@@H](C)O [Indopt 5] (H-FIKWKFRPWKKRT-NH2)	16 to 32 µM	16 µM	4 µM (≈ 7.28 µg/mL)	8 µM (≈ 14.6 µg/mL)	–
CC[C@H](C)[C@H](NC(=O)[C@@H](N)Cc1ccccc1)C(=O)N[C@@H](CCCCN)C(=O)N[C@@H](Cc1c[nH]c2ccccc12)C(=O)N[C@@H](CCCNC(=N)N)C(=O)N[C@@H](CO)C(=O)N[C@@H](CCCNC(=N)N)C(=O)N[C@@H](Cc1c[nH]c2ccccc12)C(=O)N[C@@H](Cc1c[nH]c2ccccc12)C(=O)N[C@@H](CCCCN)C(=O)N[C@@H](CCCCN)C(=O)N[C@@H](CCCNC(=N)N)C(=O)N[C@H](C(N)=O)[C@@H](C)O [Indopt 3] (H-FIKWRSRWWKKRT-NH2)	32 µM	16 µM	4 µM (≈ 7.51 µg/mL)	8 µM (≈ 15 µg/mL)	–
CC[C@H](C)[C@H](NC(=O)[C@@H](NC(=O)[C@H](CCCNC(=N)N)NC(=O)[C@H](Cc1c[nH]c2ccccc12)NC(=O)[C@H](CCCNC(=N)N)NC(=O)[C@@H](N)CCCNC(=N)N)C(C)C)C(=O)N[C@H](C(=O)N[C@@H](CCCCN)C(=O)N[C@@H](Cc1c[nH]c2ccccc12)C(N)=O)C(C)C [LOP4] (H-RRWRVIVKW-NH2)	4 µM	8 µM	4 µM (≈ 5.19 µg/mL)	4 µM (≈ 5.19 µg/mL)	–
CC(C)[C@H](NC(=O)[C@H](Cc1c[nH]c2ccccc12)NC(=O)[C@H](CCCNC(=N)N)NC(=O)[C@H](Cc1c[nH]c2ccccc12)NC(=O)[C@H](Cc1c[nH]c2ccccc12)NC(=O)[C@H](CCCNC(=N)N)NC(=O)[C@@H](N)CCCNC(=N)N)C(=O)N[C@H](C(=O)N[C@@H](Cc1c[nH]c2ccccc12)C(N)=O)C(C)C [LOP2] (H-RRWWRWVVW-NH2)	2 µM	8 µM	4 µM (≈ 5.71 µg/mL)	8 µM (≈ 11.4 µg/mL)	–
CC[C@H](C)[C@H](NC(=O)[C@@H](N)Cc1ccccc1)C(=O)N[C@@H](CCCCN)C(=O)N[C@@H](Cc1c[nH]c2ccccc12)C(=O)N[C@@H](CCCNC(=N)N)C(=O)N[C@@H](Cc1ccccc1)C(=O)N[C@@H](CCCNC(=N)N)C(=O)N[C@@H](CCCNC(=N)N)C(=O)N[C@@H](Cc1c[nH]c2ccccc12)C(=O)N[C@@H](CCCCN)C(=O)N[C@@H](CCCCN)C(=O)N[C@@H](CCCNC(=N)N)C(=O)N[C@@H](CCCCN)C(N)=O [Indopt 4] (H-FIKWRFRRWKKRK-NH2)	16 to 32 µM	8 µM	4 µM (≈ 7.74 µg/mL)	4 to 8 µM	MIC against MDR isolates of PA, PA910 ([1]; MDR PA 910, 18 h): 4 to 8 µM
CC[C@H](C)[C@H](NC(=O)[C@H](Cc1c[nH]c2ccccc12)NC(=O)[C@H](CCCCN)NC(=O)[C@H](CCCCN)NC(=O)[C@H](CC(C)C)NC(=O)[C@H](Cc1c[nH]c2ccccc12)NC(=O)[C@H](CCCCN)NC(=O)[C@@H](N)Cc1c[nH]c2ccccc12)C(=O)N[C@@H](CCCCN)C(N)=O [LOP5] (H-WKWLKKWIK-NH2)	8 µM	8 µM	4 µM (≈ 5.26 µg/mL)	8 µM (≈ 10.5 µg/mL)	–
CC[C@H](C)[C@H](NC(=O)[C@H](CCCNC(=N)N)NC(=O)[C@H](CCCNC(=N)N)NC(=O)[C@H](CC(C)C)NC(=O)[C@@H](N)CCCNC(=N)N)C(=O)N[C@H](C(=O)N[C@H](C(=O)N[C@H](C(=O)N[C@@H](CCCNC(=N)N)C(=O)N[C@H](C(=O)N[C@@H](C)C(=O)N[C@@H](CCCNC(=N)N)C(N)=O)C(C)C)[C@@H](C)CC)C(C)C)C(C)C [Peptide R3] (H-RLRRIVVIRVAR-NH2)	16 µM	16 µM	16 µM (≈ 24.1 µg/mL)	32 µM (≈ 48.2 µg/mL)	–
CC[C@H](C)[C@H](N)C(=O)N[C@@H](CC(C)C)C(=O)N[C@@H](CCCCN)C(=O)N[C@@H](Cc1c[nH]c2ccccc12)C(=O)N[C@@H](CCCCN)C(=O)N[C@@H](CCCNC(=N)N)C(=O)N[C@@H](CCCCN)C(=O)N[C@@H](Cc1c[nH]c2ccccc12)C(=O)N[C@@H](Cc1c[nH]c2ccccc12)C(=O)N[C@@H](CCCCN)C(=O)N[C@@H](Cc1c[nH]c2ccccc12)C(=O)N[C@@H](Cc1ccccc1)C(=O)N[C@@H](CCCNC(=N)N)C(N)=O [Indopt 7] (H-ILKWKRKWWKWFR-NH2)	32 µM	8 µM	2 µM (≈ 3.92 µg/mL)	4 µM (≈ 7.84 µg/mL)	–
CC[C@H](C)[C@H](NC(=O)[C@H](CCCNC(=N)N)NC(=O)[C@H](C)NC(=O)[C@H](CC(C)C)NC(=O)[C@@H](N)CCCNC(=N)N)C(=O)N[C@H](C(=O)N[C@H](C(=O)N[C@H](C(=O)N[C@@H](CCCNC(=N)N)C(=O)N[C@H](C(=O)N[C@@H](C)C(=O)N[C@@H](CCCNC(=N)N)C(N)=O)C(C)C)[C@@H](C)CC)C(C)C)C(C)C [Bac2a] (H-RLARIVVIRVAR-NH2)	16 µM	32 µM	16 µM (≈ 22.7 µg/mL)	32 µM (≈ 45.5 µg/mL)	–
